Earlier results, collected in US20260167972A1, “AMINO ACID DERIVATIVES AS NOVEL DELIVERY AGENTS FOR FUNCTIONAL DELIVERY OF OLIGONUCLEOTIDES” (University of Rochester, priority 2022, published 2026).
Entries after “also recorded” stand apart in the source; their conditions may differ.

Test system: human A549 lung adenocarincoma cells
Conditions: cyclic peptide complexed with Rh-siRNA; compared with naked Rh-siRNA; cited from earlier work

| Substance | Rh-siRNA cellular/cytosolic delivery |
| --- | --- |
| Ac-C(FKFE)2CG-NH2 | improved Rh-siRNA cellular delivery compared with naked Rh-siRNA |
| Ac-C(WR)4CG-NH2 | improved Rh-siRNA cellular delivery compared with naked Rh-siRNA; also recorded: significantly enhanced cytosolic delivery of Rh-siRNA |
